Source: patent US20230414775A1, “TUBULYSINS AND PROTEIN-TUBULYSIN CONJUGATES” (priority 2021, published 2023)
Where two headings read alike, the source gives them in different places.

How the values were obtained:
HCT15 cells = experiment: HCT15 anti-proliferation / cell killing assay (CellTiter-Glo), with or without verapamil; format: cell-based, human; details: Homo sapiens
Procedure: The cell line used in the anti-proliferation assays was HCT15, a human colon, colorectal carcinoma cell line. The HCT15 cells were grown in RPMI medium 1640+10% FBS. To run the assay, the cells (40 μL, 400 cells) were added to each well in a 384-well plate and incubated for twenty-four hours at 37° C. with 5% CO2. One hour before adding compounds, freshly dilute Verapamil to 0.2 mg/ml in ddH2O. Add 1 μL/well diluted Verapamil to Verapamil treatment wells and 1 μL/well ddH2O to the non-Verapamil treatment wells. Return plates to the incubator at 37° C. with 5% CO2. Then the cells were treated with test compounds at various concentrations using HPD300, and then normalize the DMSO to 0.5%. The control wells contained cells and the medium but lack the test compounds. The plates were incubated for 120 hours at 37° C. with 5% CO2. CTG reagent was then added to the wells (25 μL). After the plates were shaken for 10 min and then incubated for 10 min at room temperature, paste the clear bottom with white back seal and record luminescence with Envision. The inhibition % was calculated according to the following equation: inhibition %=[1−(assay-blank)/(control-blank)]×100.

SK-BR-3 cells = experiment: SK-BR-3 anti-proliferation assay for payloads (CellTiter-Glo); format: cell-based; details: Homo sapiens, free payload, 120-144 h, read-out: SKBR3
Procedure: The cell line used in the anti-proliferation assays was SK-BR-3, a human breast, adenocarcinoma (pleural effusion) cell line. The cells were grown in McCoy's 5a Medium+10% FBS. To run the assay for payloads, the cells (40 μL, 700 cells) were added to each well in a 384-well plate and incubated for 24 hours at 37° C. with 5% CO2. Then the cells were treated with test compounds at various concentrations using HPD300, and then normalize the DMSO to 0.5%. The control wells contain cells and the medium but lack the test compounds. The plates were incubated for 120 h at 37° C. with 5% CO2. To run the assay for ADCs and some key payloads, the cells (80 μL, 1000 cells) were added to each well in a 96-well plate and incubated for twenty-four hours at 37° C. with 5% CO2. Next, the ADCs or payloads were diluted with Opti-Mem with 0.1% BSA. The cells were treated with test compounds or ADCs (20 μL) at various concentrations in appropriate cell culture medium (total volume, 0.1 mL). The final concentration of DMSO was adjusted to 0.2% and the Opti-Mem with 0.1% BSA was adjusted to 5%. The control wells contained cells and the medium but lacked the test compounds. The plates were incubated for 144 h at 37° C. with 5% CO2. CTG reagent was then added to the wells (25 μL/384-well or 100 μL/96-well). After the plates were shaken for 10 min and then incubated for 10 min at room temperature, paste the clear bottom with white back seal and record luminescence with Envision. The inhibition % was calculated according to the following equation: inhibition %=[1-(assay-blank)/(control-blank)]×100.

[1] = HCT15 cells, no verapamil, 120 h (5 days), read-out: HCT-15
[2] = HCT-15, HCT15 cells pre-treated with verapamil, 120 h, read-out: HCT-15 with verapamil

Row | Structure (SMILES) | IC50 (HCT15 cells; [1]) [nM] | IC50 (HCT15 cells; [2]) [nM] | IC50 (SK-BR-3 cells) [nM]
1 | CCCCCCN(C(=O)[C@@H](NC(=O)[C@H]1CCCCN1C)[C@@H](C)CC)[C@H](C[C@@H](OC(C)=O)c1nc(C(=O)N[C@@H](Cc2ccc(NCC(N)=O)cc2)CC(C)(C)C(=O)O)cs1)C(C)C (racemic) [PA18, Rac-(R)-4-(2-((1S,3S)-1-acetoxy-3-((2R,3R)—N-hexyl-3-methyl-2-((S)-1-methylpiperidine-2-carboxamido)pentanamido)-4-methylpentyl)thiazole-4-carboxamido)-acid] | 0.3 | 0.131 | 0.067
2 | CCCCCCN(C(=O)[C@@H](NC(=O)[C@H]1CCCCN1C)[C@@H](C)CC)[C@H](C[C@@H](OC(C)=O)c1nc(C(=O)N[C@@H](Cc2ccc(N(CCO)C(=O)CN)cc2)CC(C)(C)C(=O)O)cs1)C(C)C (racemic) [PA19, Rac-(R)-4-(2-((1S,3S)-1-acetoxy-3-((2R,3R)—N-hexyl-3-methyl-2-((S)-1-methylpiperidine-2-carboxamido)pentanamido)-4-methylpentyl)thiazole-4-carboxamido)-acid] | 10.8 | 1.8 | 1.84
3 | CCCCCCN(C(=O)[C@@H](NC(=O)[C@H]1CCCCN1C)[C@@H](C)CC)[C@H](C[C@@H](OC(C)=O)c1nc(C(=O)N[C@@H](Cc2ccc(N)cc2)CC(C)(C)C(=O)NCC(=O)O)cs1)C(C)C (racemic) [PA29, Rac-((R)-4-(2-((1S,3S)-1-acetoxy-3-((2R,3R)—N-hexyl-3-methyl-2-((S)-1-methylpiperidine-2-carboxamido)pentanamido)-4-methylpentyl)thiazole-4-carboxamido)-5-(4-aminophenyl)-2,2-dimethylpentanoyl)glycine] | 97.1 | 9.7 | 1.47
4 | CCCCCCN(C(=O)[C@@H](NC(=O)[C@@]1(C)CCCN1)[C@@H](C)CC)[C@H](C[C@@H](OC(C)=O)c1nc(C(=O)N[C@@H](Cc2ccc(O)cc2)CC(C)(C)C(=O)O)cs1)C(C)C [Compound P22, reference compound] | 0.265 | 0.078 | 0.087
5 | CCCCCCN(C(=O)[C@@H](NC(=O)[C@H]1CCCCN1C)[C@@H](C)CC)[C@H](C[C@@H](OC(C)=O)c1nc(C(=O)N[C@@H](Cc2ccc(NC(=O)CN)cc2)CC(C)(C)C(=O)O)cs1)C(C)C [Compound P28, reference compound] | 0.172 | 0.107 | 0.039
6 | C#CCCCON(C(=O)[C@@H](NC(=O)[C@@]1(C)CCCN1CCO)[C@@H](C)CC)[C@H](C[C@@H](OC(C)=O)c1nc(C(=O)N[C@@H](Cc2ccc(N)cc2)CC(C)(C)C(=O)O)cs1)C(C)C [PA3, (4S)-4-({2-[(1R,3R)-1-(acetyloxy)-3-[(2S,3S)-2-{[(2R)-1-(2-hydroxyethyl)-2-methylpyrrolidin-2-yl]formamido}-3-methyl-N-(pent-4-yn-1-yloxy)pentanamido]-4-methylpentyl]-1,3-thiazol-4-yl}formamido)-5-(4-aminophenyl)-2,2-dimethylpentanoic acid] | 7.7 | 0.741 | 1.46
7 | CCCCCCN(C(=O)[C@@H](NC(=O)[C@H]1CCCCN1CCN)[C@@H](C)CC)[C@H](C[C@@H](OCC)c1nc(C(=O)N[C@@H](Cc2ccc(O)cc2)CC(C)(C)C(=O)O)cs1)C(C)C [PA4, (S)-4-(2-((1R,3R)-3-((2S,3S)-2-((R)-1-(2-aminoethyl)piperidine-2-carboxamido)-N-hexyl-3-methylpentanamido)-1-ethoxy-4-methylpentyl)thiazole-4-carboxamido)-5-(4-hydroxyphenyl)-2,2-dimethylpentanoic acid] | 85 | 6.19 | > 1
8 | CCCCCCN(C(=O)[C@@H](NC(=O)[C@@]1(C)CCCN1CCO)[C@@H](C)CC)[C@H](C[C@@H](OC(C)=O)c1nc(C(=O)N[C@@H](Cc2ccc(N)cc2)CC(C)(C)C(=O)O)cs1)C(C)C [PA6, (4S)-4-({2-[(1R,3R)-1-(acetyloxy)-3-[(2S,3S)—N-hexyl-2-{[(2R)-1-(2-hydroxyethyl)-2-methylpyrrolidin-2-yl]formamido}-3-methylpentanamido]-4-methylpentyl]-1,3-thiazol-4-yl}formamido)-5-(4-aminophenyl)-2,2-dimethylpentanoic acid] | 3.27 | 0.62 | 0.514
9 | CCCCCCN(C(=O)[C@@H](NC(=O)[C@H]1CCCCN1CCO)[C@@H](C)CC)[C@H](C[C@@H](OC(C)=O)c1nc(C(=O)N[C@@H](Cc2ccc(N)c(F)c2)CC(C)(C)C(=O)O)cs1)C(C)C [PA8, (4S)-4-({2-[(1R,3R)-1-(acetyloxy)-3-[(2S,3S)—N-hexyl-2-{[(2R)-1-(2-hydroxyethyl)piperidin-2-yl]formamido}-3-methylpentanamido]-4-methylpentyl]-1,3-thiazol-4-yl}formamido)-5-(4-amino-3-fluorophenyl)-2,2-dimethylpentanoic acid] | 0.072 | 0.029 | 0.017
10 | CCCCCCN(C(=O)[C@@H](NC(=O)[C@H]1CCCCN1CCO)[C@@H](C)CC)[C@H](C[C@@H](OCC)c1nc(C(=O)N[C@@H](Cc2ccc(NC(=O)CN)cc2)CC(C)(C)C(=O)O)cs1)C(C)C [PA9, (S)-5-(4-(2-aminoacetamido)phenyl)-4-(2-((1R,3R)-1-ethoxy-3-((2S,3S)—N-hexyl-2-((R)-1-(2-hydroxyethyl)piperidine-2-carboxamido)-3-methylpentanamido)-4-methylpentyl)thiazole-4-carboxamido)-2,2-dimethylpentanoic acid] | 9.89 | 1.08 | 5.38
11 | CCCCCCN(C(=O)[C@@H](NC(=O)[C@H]1CCCCN1CC(=O)O)[C@@H](C)CC)[C@H](C[C@@H](OC(C)=O)c1nc(C(=O)N[C@@H](Cc2ccc(N)cc2)CC(C)(C)C(=O)O)cs1)C(C)C [PA10, (S)-4-(2-((1R,3R)-1-acetoxy-3-((2S,3S)-2-((R)-1-(carboxymethyl)piperidine-2-carboxamido)-N-hexyl-3-methylpentanamido)-4-methylpentyl)thiazole-4-carboxamido)-5-(4-aminophenyl)-2,2-dimethylpentanoic acid] | 31.7 | 2.95 | 5.33
12 | CCCCCCN(C(=O)[C@@H](NC(=O)[C@H]1CCCCN1CCOCCN)[C@@H](C)CC)[C@H](C[C@@H](OC(C)=O)c1nc(C(=O)N[C@@H](Cc2ccc(N)cc2)CC(C)(C)C(=O)O)cs1)C(C)C [PA11, (4S)-4-({2-[(1R,3R)-1-(acetyloxy)-3-[(2S,3S)-2-{[(2R)-1-[2-(2-aminoethoxy)ethyl]piperidin-2-yl]formamido}-N-hexyl-3-methylpentanamido]-4-methylpentyl]-1,3-thiazol-4-yl}formamido)-5-(4-aminophenyl)-2,2-dimethylpentanoic acid] | 150 | 5.3 | 15.1
13 | CCCCCCN(C(=O)[C@@H](NC(=O)[C@H]1CCCCN1CCOCCOCCN)[C@@H](C)CC)[C@H](C[C@@H](OC(C)=O)c1nc(C(=O)N[C@@H](Cc2ccc(N)cc2)CC(C)(C)C(=O)O)cs1)C(C)C [PA12, (4S)-4-({2-[(1R,3R)-1-(acetyloxy)-3-[(2S,3S)-2-{[(2R)-1-{2-[2-(2-aminoethoxy)ethoxy]ethyl}piperidin-2-yl]formamido}-N-hexyl-3-methylpentanamido]-4-methylpentyl]-1,3-thiazol-4-yl}formamido)-5-(4-aminophenyl)-2,2-dimethylpentanoic acid] | 72.1 | 4.73 | > 100
